Results: US9744164B2, “Neuroprotective polyphenol analogs” (Salk Institute for Biological Studies, priority 2011, dated 2017)

Tests used:
PC12 cells = assay: glucose starvation assay; format: cell-based; conditions: PC12 cells starved for glucose, MTT 24 hr
Procedure: FIG. 5C—PC12 cells were glucose-deprived then were incubates in the absence or presence of Baicalein. Cell viability was determined 24 hr later using the MTT assay. […] When these cells are starved for glucose, there is approximately 70% maximal survival in the presence of NGF. Baicalein promotes over 80% survival (FIG. 5C).

[1] = test system: primary mouse cortical neurons; assay: primary cortical cell glutamate excitotoxicity assay; format: cell-based; conditions: E14 mouse primary cortical neurons, 10 μM glutamate 10 min, Baicalein 0.2-5 μM, MTT 24 hr
Procedure: FIG. 5B—excitotoxicity assay was done with E14 mouse primary cortical neuron cultures. After 11 days of culture, cells were exposed to 10 μM glutamate for 10 min, followed by the addition of varying concentrations of Baicalein (0.2-5 μM). Cell viability was determined 24 hr later with a standard MTT assay.
Excitotoxicity cell assay: Primary cultures of cortical neurons that die due to excitotoxicity were prepared as described previously. Briefly, BALB/c mouse embryo cortices were minced and treated with 0.1% trypsin for 20 min. After centrifugation, the cells are resuspended in 827 Neurobasal medium (Invitrogen) plus 10% fetal calf serum and are dissociated by repeated pipetting through a 1 mL blue Eppendorf pipette tip. Then the cells are plated at 1×10^5 cells per well in 96-well poly-L-lysine and laminin-coated microtiter plates (Becton Dickinson, Bedford, Mass., USA) in 827 Neurobasal plus 10% fetal calf serum and 20% glial growth-conditioned medium. Two days later the medium is aspirated and replaced by serum-free 827 Neurobasal medium plus 10 μg/mL cytosine arabinoside. The cultures are used without media change 11 days after plating and are essentially free of astrocytes. They are exposed to 10 μM glutamate followed by varying concentrations of the compounds. Cell viability is determined 24 h later using […]. […]

[2] = test system: embolic strokes in rabbits; conditions: RSCEM, as published in the manuscript; cited from earlier work
mice = conditions: oral dose; cited from earlier work
Akita mouse = conditions: Maher et al. 2011; cited from earlier work
[3] = Shia, et al. 2009; cited from earlier work

| SMILES | survival (PC12 cells) | cells rescued [1] | therapeutic window [2] | memory (mice) | elevation of blood sugar (Akita mouse) | kidney hypertrophy and albuminuria (Akita mouse) | bioavailability [3] |
| --- | --- | --- | --- | --- | --- | --- | --- |
| O=c1cc(-c2ccccc2)oc2cc(O)c(O)c(O)c12 [Baicalein, 5,6,7-trihydroxyflavone] | over 80% | about 35% | ≥ 60 min | – | – | – | – |
| O=c1c(O)c(-c2ccc(O)c(O)c2)oc2cc(O)ccc12 [Fisetin, 3,7,3′,4′-tetrahydroxy flavone] | – | – | – | potentiates memory equally as well as rolipram | no effect | reduced | poor |
